Patent US9493466B2, “Treatment of cancer with TOR kinase inhibitors” (Signal Pharmaceuticals, LLC, priority 2011, dated 2016)

How the values were obtained:
[1] = Phase 1/2 study Part A: safety and tolerability
Description: The study is designed as a Phase 1/2 trial consisting of two parts: dose escalation (Part A) and dose expansion (Part B).
Subsequently, a standard escalation dosing schedule with approximately 50% dose increments and 6 subjects per cohort will be initiated in order to establish the non-tolerated dose (NTD) and MTD. Smaller increments and additional subjects within a dose cohort may also be evaluated.
A dose will be considered to be non-tolerated if 2 evaluable subjects in a dose cohort experience dose-limiting toxicity (DLT). When a NTD is defined, dose escalation will be stopped. The MTD will be defined as the last dose tested below the NTD with 0 or 1 out of 6 evaluable subjects experiencing DLT during Cycle 1. An intermediate dose (i.e., one between the NTD and the last dose level before the NTD) or additional subjects within any dose cohort may be required to determine the MTD more precisely.
The safety variables for this study are adverse events, clinical laboratory variables, 12-lead ECGs (centrally reviewed), LVEF assessments, physical examinations and vital signs. In Part A, the decision to either evaluate a higher dose level or declare a MTD will be determined by the Safety Review Committee (SRC) each time all clinical and laboratory safety data for a given cohort is available for review. The SRC will also determine the dose, doses, or schedule appropriate for Part B. During Part B, the SRC will continue to review safety data regularly and make recommendations about the study continuation, as appropriate.
Part A: Accelerated Dose Escalation Results.

[2] = Phase 1/2 study Part A: pharmacokinetics; assay type: in vivo, human
Description: During the first cycle only in Part A, each subject will be administered a single dose of Compound 1 (Day −1), followed by a 48-hour observation and PK sampling period, followed on Day 1 by daily uninterrupted dosing for 28 days (Cycle 1=30 days). In subsequent Part A cycles, subjects are treated in 28-day cycles with continuous dosing from Day 1 to 28. In Part B, subjects will receive continuous dosing for 28 days from the beginning—there is neither an initial observation period nor a 48-hour PK collection.

[3] = test system: NSCLC primary tumor grafts; test: Low passage tumorgraft models of NSCLC; assay type: in vivo, immunocompromised mice; settings: 1, 5 and 10 mg/kg once daily for 28 days
Description: In Vivo Evaluation of Compound 1 in Low Passage Tumorgraft Models of Non-Small Cell Lung Cancer (NSCLC). The objective of the study was to evaluate the single agent efficacy of Compound 1 in non-small cell lung cancer (NCSLC) models. The antitumor activity of Compound 1 was evaluated in low passage non-small cell lung cancer (NSCLC) tumorgraft models. The tumorgrafts were developed by directly implanting the human tumor fragments into immunocompromised mice and then subsequently passaged in vivo. The tumors from these primary tumorgrafts have preserved biological and morphological characteristics of the original human tumors. The antitumor activity of Compound 1 was evaluated at three dose levels (1, 5 and 10 mg/kg) with once daily dosing for 28 days. During the course of the study antitumor activity was evaluated by measuring the tumors.

[4] = test system: Hep3B2.1-7 human liver tumor cells; test: Hepatocellular carcinoma (Hep3B2.1-7) orthotopic study; assay type: in vivo, mice; settings: 10 mg/kg daily p.o., three weeks; FIGS. 17-18
Description: Hepatocellular Carcinoma (Hep3B2.1-7) Orthotopic Study. Hep3B2.1-7 human liver tumor cells were cultured in RPMI 1640 cell culture medium, supplemented with 10% FBS, 1% Glutamax and 1% penicillin-streptomycin. The cells were harvested by trypsinization, washed twice in HBSS and counted. The cells were then resuspended in HBSS:Matrigel™ (1:1, v/v) to a final concentration of 2×10^8 cells/mL. Prior to inoculation (while the animal was anesthetized via injectable Ketamil (10 mg/mL)/Xylazil (0.9 mg/mL) anesthetic), the skin on the incision site was swabbed with alcohol and an incision was made into the skin directly over the liver to expose the main lobe of the liver. The needle was introduced into the main lobe of the liver, where 2×10^6 Hep3B2.1-7 cells (in 10 μL with 50% Matrigel™) were discharged. Fourteen days post-inoculation, a satellite group of mice were culled to assess the presence of tumors in the liver.
Compound 1 powder was suspended in 0.5% CMC/0.25% Tween80 to achieve a stock concentration of 2 mg/mL. […]
The Vehicle Control and Test Articles were administered in a dosing volume of 5 mL/kg. Each animal's body weight was measured immediately prior to dosing. The volume of dosing solution administered to each animal was calculated and adjusted based on individual body weight. […]

In the case of `CO[C@H]1CC[C@H](N2C(=O)CNc3ncc(-c4ccc(C(C)(C)O)nc4)nc32)CC1` [Compound 1, 7-(6-(2-hydroxypropan-2-yl)pyridin-3-yl)-1-((1r,4r)-4-methoxycyclohexyl)-3,4-dihydropyrazino-[2,3-b]pyrazin-2(1H)-one], the DLT ([1]; 30 mg) is reported as “Grade 3 hyperglycemia”, the DLT ([1]; 45 mg) is reported as “grade 3 rash” and the DLT ([1]; 60 mg) is reported as “Fatigue and mucositis”. The “dose level of the first grade 2 related toxicity” value ([1]; 3rd dose level) was 30 mg, the “most frequent related events” value ([1]; N=28, 7.5 to 60 mg) was “Fatigue, GI toxicity (including mucositis/stomatitis), hyperglycemia, rash and arthralgia” and the MTD ([1]; once daily, oral) was 45 mg. The NTD ([1]; once daily, oral) was 60 mg, the Hyperglycemia ([1]; onset often during cycle 1, dose related) was “reported frequently” and the interstitial pneumonitis ([1]; responded to steroid treatment) was “One case of grade 3 interstitial pneumonitis requiring hospitalization”. For the same compound, the tolerability ([1]; toxicities comparable to other drugs targeting this pathway) was “well tolerated”, the “mean steady state Cmax” value ([2]; 45 mg, day 15) was 485 ng/mL and the AUC0-24 ([2]; 45 mg, mean steady state) was 2371 ng^xhr/mL. For the same compound, the drug accumulation ([2]; after 15 days of dosing) was “only minimal drug accumulation”, the “exposures versus levels estimated to provide >50% inhibition of TORC1 (pS6) and TORC2 (pAKT) for at least 8 hours” value ([2]; dose levels of 30 mg and higher, estimate from preclinical xenograft models) was “exceeded” and the “drug exposure versus dose” value ([2]; high intersubject variability) was “Dose proportional”. The “growth of tumor grafts” value [3] was “significantly inhibited” and the tumor growth inhibition [4] was “significant tumor growth inhibition”.
